Measured values taken from patent US20240304334A1, “CLOTTABILITY-BASED PERSONALIZED TREATMENT (CPT) SYSTEM” (priority 2021, published 2024).
Values joined by “and” are separate entries in the source; they are usually repeats but may differ in a detail not shown here. Equal entries are not always repeated. Blank lines part the entries; values can stand above or below the compound they belong to.

Key:
coagulation pathway = assay: Clottability test (CCT minus TFT) in plasma of patients on anticoagulants, clinical study C; format: in vivo, human; conditions: individual patient plasma, single time point, on anticoagulant
Description: For determination of the clottability of blood, combined clottability assays were performed using a (a) clot-based and (b) enzyme-based fibrinogen test. The information provided by the assay is whether the blood is normal-clottable, hyperclottable, or hypoclottable by measuring fibrinogen concentration in blood plasma.
To estimate the clotting dynamics, […]. Thus, clottability is determined by […] (clottability=CCT−TFT). Exemplary, high values after subtraction of the obtained concentrations of the tests indicate high amounts of pro-coagulable factors and thus increased thrombin activity. Therefore, the greater the in vivo thrombin activation, the higher the obtained values from the clottability test. This leads to the finding that high values relate to an increased clottability.
The skilled person is aware of how to perform the CCT test. Thus, as an example, Multifibren-U from Siemens and/or HemoslL Fibrinogen-C from IL/Werfen can be used. Moreover, it is known that the CCT test can show a higher fibrinogen concentration than the actual concentration due to enhanced clotting efficiency by the pro-coagulable factors due to the thrombin activity. […]

[1] = tested on: fibrinogen and fibrin-derivatives; assay: CCT before and after anticoagulant in healthy volunteers; format: in vivo, human; conditions: 6 healthy volunteers; for CCT average after treatment: 3 hrs after last intake, rivaroxaban 15 mg twice daily 2.5 days, apixaban 10 mg twice daily 3.5 days; for CCT average before treatment: just before anticoagulant intake; for difference in CCT after vs before treatment: not statistical significant
Description: The skilled person is aware of how to perform the CCT test. Thus, as an example, Multifibren-U from Siemens and/or HemoslL Fibrinogen-C from IL/Werfen can be used. Moreover, it is known that the CCT test can show a higher fibrinogen concentration than the actual concentration due to enhanced clotting efficiency by the pro-coagulable factors due to the thrombin activity. […] In such study, rivaroxaban study was performed on 6 healthy volunteers, with ages between 18-50 years. They fulfilled the criteria of normal vital signs and lab screening tests for infection, hematology and coagulation, and had no abnormalities at physical examination. They were given 15 mg rivaroxaban twice daily for 2.5 days. The dosage of twice-daily 15 mg was chosen as it is the highest approved dosage for the initial treatment of acute venous thromboembolism (VTE). The apixaban study was performed on another 6 healthy volunteers, with the same health profile requirements as rivaroxaban study. These 6 volunteers were given 10 mg apixaban twice daily for 3.5 days. Blood samples were drawn just before anticoagulants intake and 3 hrs after the last intake. Measurement of fibrinogen was in duplicate.

[2] = human, in vivo
Description: Plasma samples from 19 patients were tested to investigate the coagulation pathway activity using the clottability test (CCT and TFT) and D-dimer test. These patients were receiving various anticoagulant drugs, such as rivaroxaban, apixaban, edoxaban, dabigatran, or argatroban, and the drug concentrations of each individual were determined. The aim of the study was to examine the activity of the coagulation pathway by means of both, the clottability test and D-dimer test in relation to the determined drug concentration in the plasma.

[3] = co-administering Rifampicin (P-glycoprotein inducer); cited from earlier work
[4] = tested on: patients with acute cerebral infarction (ACI); assay: Neurological assessment (NIHSS) in acute cerebral infarction patients; format: in vivo, human; conditions: ACI patients n=35, 2 weeks, plus aspirin 100 mg/day
Description: (§1) Seventy patients who had complete clinical record and were diagnosed with acute cerebral infarction (ACI), either validated by CT or MRI, were included into this study. They have to be the first time patients of ACI and the disease onset should be shorter than 72 hours, and the cause of the cerebral infarction was cardiac origin, and they were without abnormal renal function, without bleeding history and hemostatic abnormality. These 70 patients were divided into 2 groups, 35 in control group and the other 35 in observational group. The control group patients were treated with rivaroxaban (anticoagulant), while observational group patients were treated combined rivaroxaban and sodium ozagrel (anti-platelet). Sodium ozagrel inhibits platelet activation and aggregation through specific inhibition of thromboxane (TX) synthetase. Due to the inhibitory effect of ozagrel on platelet activation, platelets cease to become the main lipid surface of thrombin generation. Beside standard treatment such as enriched oxygen supply, etc, all 70 patients were treated with aspirin 100 mg/tablet/day. Additionally, the control and observational groups were given rivaroxaban 15 mg/tablet/day. On top of rivaroxaban, the observational group received intravenously and daily 80 mg of ozagrel sodium in 500 mL glucose (5%) solution. Everyone was treated for 2 weeks. Both groups have very similar age mean and range (40-70 years). After 2 weeks of treatment, clinical efficacy (neurological assessments), coagulation lab tests (only CCT is shown) and GCS scores of the two groups were compared. Neurological […] according to NIH stroke scale (NIHSS). When NIHSS score reduces ≥90%, the disability classification is grade 0, and the treatment is highly efficacious. When NIHSS score reduces to between 46% and 89%, the disability classification is grade 1 to 3, the treatment is considered efficacious. The treatment is no efficacious, when the score is below 46%.

Fibrin(ogen) = assay: CCT in acute cerebral infarction patients; format: in vivo, human; conditions: ACI patients
Description: as §1

[5] = tested on: patients with acute cerebral infarction (ACI); assay: Glasgow coma score (GCS) in acute cerebral infarction patients; format: in vivo, human
Description: Seventy patients who had complete clinical record and were diagnosed with acute cerebral infarction (ACI), either validated by CT or MRI, were included into this study. They have to be the first time patients of ACI and the disease onset should be shorter than 72 hours, and the cause of the cerebral infarction was cardiac origin, and they were without abnormal renal function, without bleeding history and hemostatic abnormality. These 70 patients were divided into 2 groups, 35 in control group and the other 35 in observational group. The control group patients were treated with rivaroxaban (anticoagulant), while observational group patients were treated combined rivaroxaban and sodium ozagrel (anti-platelet). Sodium ozagrel inhibits platelet activation and aggregation through specific inhibition of thromboxane (TX) synthetase. Due to the inhibitory effect of ozagrel on platelet activation, platelets cease to become the main lipid surface of thrombin generation. Beside standard treatment such as enriched oxygen supply, etc, all 70 patients were treated with aspirin 100 mg/tablet/day. Additionally, the control and observational groups were given rivaroxaban 15 mg/tablet/day. On top of rivaroxaban, the observational group received intravenously and daily 80 mg of ozagrel sodium in 500 mL glucose (5%) solution. Everyone was treated for 2 weeks. Both groups have very similar age mean and range (40-70 years). The coma assessment was carried out before and after treatment on all subjects, based on Glasgow coma score (GCS) scoring system, which has 15 as full score. The degree of coma is lighter and is reflected with higher score. The recovery based on GCS is summarized in Table 4, together with CCT results.

AECOPD patients [6] = assay: Blood gas analysis in AECOPD patients; format: in vivo, human; conditions: for PCO2 / SO2: AECOPD
Source text: (§2) This is again another example how anticoagulant treatment reduces pathological in vivo thrombin generation with the concomitant reduction of fibrin-derivatives detectable by CCT. This example is a highly prevalent (>10%) progressive chronic disease, which has strong clinical manifestations of immune and coagulation systems. Chronic obstructive pulmonary disease (COPD) is an inflammatory lung disease that affects respiratory function with concomitant high thrombosis risk. In this example, study subjects were the 70 patients diagnosed with COPD and developed acute exacerbation form of COPD (AECOPD). On top of the standard AECOPD treatments e.g. anti-infection, bronchodilation, phlegm elimination, and oxygen treatment, etc, 32 of these AECOPD patients received no additional treatment and the other 38 of them were treated with low molecular weight heparin calcium (LMWH, 4100 IU anti-FXa/injection every 12 hrs, for 10 days).
(§3) Treatment efficacy was evaluated based on several parameters: pulmonary function, blood gas analysis and coagulation parameters. All this information were obtained before and after the LMWH anticoagulant treatment, the same for the control group. The pulmonary function was measured with several methods, such as FEV1 (measurement of forced expiratory volume in 1 sec after bronchodilator was inhaled) and FVC (forced vital capacity, and the ratio of FEV/FVC in % as clinical signs of respiratory performance). Blood gas analysis was obtained by measuring oxygen saturation of blood (SO2), partial pressure of oxygen (PO2) and partial pressure of carbon dioxide (PCO2). Several blood coagulation parameters were measured; they are CCT, DD, PT-INR.

AECOPD patients [7] = assay: Pulmonary function in AECOPD patients; format: in vivo, human
Source text: as §2, §3

[8] = tested on: fibrinogen and fibrin-derivatives; assay: CCT in AECOPD patients; format: in vivo, human
Source text: as §2
(§4) Treatment efficacy was evaluated based on several parameters: pulmonary function, blood gas analysis and coagulation parameters. […] The pulmonary function was measured with several methods, such as FEV1 (measurement of forced expiratory volume in 1 sec after bronchodilator was inhaled) and FVC (forced vital capacity, and the ratio of FEV/FVC in % as clinical signs of respiratory performance). […] Several blood coagulation parameters were measured; they are CCT, DD, PT-INR.

D-dimer = assay: DD in AECOPD patients; format: in vivo, human
Source text: as §2, §4

coagulation system = assay: PT and INR in AECOPD patients; format: in vivo, human
Source text: as §2, §3

Compound: COc1ccc(-n2nc(C(N)=O)c3c2C(=O)N(c2ccc(N4CCCCC4=O)cc2)CC3)cc1 [apixaban]
Clottability test (coagulation pathway): > 1.5 g/L and 2.7 g/L and 0.8 g/L and 1.8 g/L | CCT average after treatment [1]: 2.38 | CCT average before treatment [1]: 2.56 | difference in CCT after vs before treatment [1]: −0.18

PK profile [2]: bottom
Compound: CC1CNc2c(cccc2S(=O)(=O)N[C@@H](CCCNC(=N)N)C(=O)N2CC[C@@H](C)C[C@@H]2C(=O)O)C1 (stereo partly drawn) [argatroban]

Compound: [H]/N=C(/N)c1ccc(NCc2nc3cc(C(=O)N(CCC(=O)O)c4ccccn4)ccc3n2C)cc1 [dabigatran]
decrease of maximum plasma concentration of dabigatran [3]: approximately 67%

Compound: O=C(NC[C@H]1CN(c2ccc(N3CCOCC3=O)cc2)C(=O)O1)c1ccc(Cl)s1 [rivaroxaban]
Clottability test (coagulation pathway): > 1.5 g/L and 1.7 g/L and -0.5 g/L and 0.6 g/L and 2 g/L | CCT average after treatment [1]: 2.64 | CCT average before treatment [1]: 2.75 | difference in CCT after vs before treatment [1]: −0.11 | efficacious (NIHSS reduction 46% to 89%), number of patients [4]: 8 | efficacious (NIHSS), share of patients [4]: (22.9%) | highly efficacious (NIHSS score reduces ≥90%), number of patients [4]: 16 | highly efficacious (NIHSS), share of patients [4]: (45.7%) | non-efficacious (NIHSS below 46%), number of patients [4]: 11 | non-efficacious (NIHSS), share of patients [4]: (31.4%) | total efficacious (NIHSS), number of patients [4]: 24 | total efficacious (NIHSS), share of patients [4]: 68.6% | Fibrin(ogen) CCT (Fibrin(ogen); T0 before treatment): 3.93 ± 1.49 | Fibrin(ogen) CCT (Fibrin(ogen); T1 after 2 weeks of treatment): 3.15 ± 1.12 | Fibrin(ogen) CCT, difference in mean (Fibrin(ogen); T1 vs T0): −0.78 | GCS score ([5]; T0 before treatment): 6.8 ± 1.11 | GCS score ([5]; T1 after 2 weeks of treatment): 9.07 ± 1.92 | GCS score, difference in mean ([5]; T1 vs T0): 2.27

Compound: low molecular weight heparin calcium [LMWH]
PO2 (AECOPD patients [6]; AECOPD patients n=38, after 10 days LMWH plus standard treatment): 78.4 mmHg | PO2 (AECOPD patients [6]; AECOPD patients n=38, before treatment): 71.5 mmHg | PCO2 (AECOPD patients [6]; after treatment): 41.9 mmHg | SO2 (AECOPD patients [6]; after treatment): 98.6% | PCO2 (AECOPD patients [6]; before treatment): 52.2 mmHg | SO2 (AECOPD patients [6]; before treatment): 90.8% | FEV1 (AECOPD patients [7]; after treatment): 1.89 L | FEV1/FVC (AECOPD patients [7]; after treatment): 78.4% | FEV1 (AECOPD patients [7]; before treatment): 1.36 L | FEV1/FVC (AECOPD patients [7]; before treatment): 62.3% | CCT ([8]; after treatment): 2.16 | CCT ([8]; before treatment): 3.97 | DD (D-dimer; after treatment): 237.4 µg/L | DD (D-dimer; before treatment): 482.8 µg/L | INR (coagulation system; after treatment): 1.36 | PT (coagulation system; after treatment): 13.7 | INR (coagulation system; before treatment): 0.87 | PT (coagulation system; before treatment): 9.6
